Assays:
[1] = test system: MRL/lpr lupus mouse model; assay: Non-GLP in vivo evaluation of laquinimod in the MRL/lpr lupus mouse model (Example 1.4); details: for kidney glomerulonephritis (histopathology) / salivary gland inflammation (histopathological scoring): laquinimod 5 mg/kg p.o., MMF 100 mg/kg p.o., compared to vehicle
Experimental: This study evaluates the efficacy of laquinimod in the MRL/lpr lupus mouse model.
Animals were monitored until their urine proteinuria reached >200 mg/dL at which time they were enrolled in the study. Animals were dosed with either 1 or 5 mg/kg of laquinimod, p.o., 100 mg/kg mycophenolate mofetil (MMF, CellCept®) p.o., or vehicle (water DDW), p.o., daily except weekends.
Proteinuria, ankle and paw diameters, dsDNA autoantibody levels and survival were monitored during in life portion of the study. At termination, blood samples were harvested for determination of dsDNA autoantibody levels, spleens were harvested and weighed then processed to isolate splenocytes which were counted. Kidney, lung, skin, lymph node, salivary gland and joints were harvested, processed for histological examination and scored by a histopathologist blind to the treatments.

[2] = test system: Systemic Lupus Erythematosus (SLE) patients with active lupus arthritis; assay: Phase IIa randomized, double-blind, placebo-controlled clinical trial of laquinimod in lupus arthritis (Example 2); format: in vivo, human; details: daily oral 0.5 mg or 1 mg
Experimental: A multicenter, randomized, double-blind, placebo controlled clinical trial is conducted to evaluate the safety, tolerability, biomarkers and clinical effect of laquinimod (0.5 mg/day and 1 mg/day) in Systemic Lupus Erythematosus (SLE) patients with active lupus arthritis.
Approximately 90 Systemic Lupus Erythematosus patients with active lupus arthritis are enrolled. (approximately 30 subjects per treatment arm). Drop-outs are not replaced.
The overall study duration is up to 20 weeks, with the screening period being up to 2 weeks, the treatment period being 12 weeks and the follow-up period being 4 weeks.
Capsules containing laquinimod 0.5 mg and/or matching placebo are administered orally once daily: • 1. Laquinimod 0.5 mg arm—1 capsule of laquinimod 0.5 mg and 1 matching placebo capsule. • 2. Laquinimod 1 mg arm—2 capsules of laquinimod 0.5 mg. • 3. Placebo arm—2 capsules of placebo.
This is a Phase IIa, randomized, double-blind, placebo-controlled, study to assess the safety, tolerability, pharmacokinetics, biomarkers and clinical effect of two doses of laquinimod in Systemic Lupus Erythematosus patients with active lupus arthritis. This study evaluates the safety, tolerability of two doses of laquinimod (0.5 mg and 1 mg/day) in Systemic Lupus Erythematosus patients with active lupus arthritis. This study also evaluates biomarkers and clinical effect of laquinimod (0.5 mg and 1 mg/day) in Systemic Lupus Erythematosus patients with active lupus arthritis.
Subjects are initially randomized in a 1:1 ratio into one of the following two treatment arms: • 1. Laquinimod 0.5 mg. • 2. Matching placebo.
Enrollment to the 1 mg laquinimod dose group is initiated following the approval of the study safety committee, based on data of at least 10 subjects who have completed at least 4 weeks of treatment. Upon approval, randomization into one of the following three treatment arms occurs in a ratio that allows for reaching an overall target enrollment of approximately 30 subjects per treatment arm. • 1. Laquinimod 0.5 mg. • 2. Laquinimod 1 mg. • 3. Matching placebo.
Scheduled in-clinic visits are conducted at screening, baseline and at weeks 2, 4, 8, 12 and 16.
Treatment with laquinimod/placebo is discontinued on visit week 12 and a follow-up/study completion visit is conducted at week 16. Subjects who early discontinued study drug prior to visit week 12 preferably attend a follow-up study completion visit within 4 weeks (28 days) of treatment termination visit.
During the study period the British Isles Lupus Assessment Group (BILAG) score, SLE Disease Activity Index (SLEDAI 2K), Swollen and Tender joint count, Patient Global Assessment score (PGA), Evaluator Global Assessment score (EGA) and Patient Pain assessment (PtP) are assessed in addition to routine safety laboratory and physical tests, PK analysis and disease related immunology tests/biomarkers.
Response Definitions • BILAG MSK response is defined as change from Musculoskeletal A or B at baseline to C or D at LOV. • BILAG Substantial Responder (SR) is defined as all systems at last observed value (LOV) are C or D/E providing at least one system is A or B at baseline. • SLEDAI 2K response—decrease in SLEDAI of at least 4 point compared to baseline • Medicinal/Interventional flare defined as any of the following • Steroid increase by at least 5 mg/day compared to previous dose or compared to baseline or any IV, IM or Intraarticular dose. • New continuous treatment (>3 days) or increase in dose of NSAIDs or COX2 inhibitors. • New treatment or dose increase with an immunosuppressive drug compared to previous dose or compared to baseline. • Treatment with biologic agents, IVIG or plasmapheresis. • New treatment or dose increase of antimalarial drugs compared to previous dose or compared to baseline.
Lupus Arthritis • 1. […]

[3] = test system: (NZBxNZW)F1 mice; assay: Survival dose response study of laquinimod in the (NZBxNZW)F1 model for SLE, 37 weeks (Example 1.2); format: in vivo, mouse
Experimental: This was a survival dose response study to determine whether laquinimod is effective in suppressing the symptoms in (NZBxNZW)F1 mice. The positive control used was Cytoxan.
Seventy-one mice having spontaneous disease developed by the age of 7 months (as measured by proteinuria) were divided into 6 experimental groups (Water, CTX, Laquinimod 0.2 mg/kg, Laquinimod 1.0 mg/kg, Laquinimod 5.0 mg/kg, Laquinimod 25.0 mg/kg) according to their PU scores.
Water and Laquinimod were administered orally (200 μl/mouse) 5 days a week. CTX was administered intraperitonealy once weekly, (200 μl/mouse). Blood samples were collected on weeks 1, 5, 15 and 37. Serum samples were prepared for detection of anti-dsDNA antibodies. After 37 weeks (257 days) of treatment, mice were sacrificed.

[4] = test system: (NZBxNZW)F1 mouse model of SLE; details: MTX 35 μg/mouse p.o. 3 times a week; for immune complex deposition (ICD) in kidney glomeruli: end of experiment (12 weeks) vs vehicle; for immune complex deposition (ICD) in kidney glomeruli / proteinuria (PU): laquinimod 25 mg/kg p.o. daily, CTX 25 mg/ig i.p. once weekly; for proteinuria (PU): week 12 observation vs vehicle (water)
Experimental: (NZBxNZW)F1 are lupus-prone mice that develop an SLE-like disease spontaneously including anti-dsDNA antibodies (Abs), proteinuria and Immune Complex Deposits (ICD).
In a number of studies, the effect of various doses of laquinimod in the (NZBxNZW)F1 model for SLE were assessed. The studies also included a negative control (water) and positive controls including cyclophosphamide (CTX) and methotrexate (MTX).
This study investigated the effect of laquinimod, an immunomodulator of SLE in a murine model of SLE and compared the treatment effect to reference substances CTX and MTX.
Laquinimod and reference compounds CTX and MTX were applied in therapeutic mode, starting the treatment at the time when the characteristic change of murine SLE model, proteinuria (PU) was present in >80% of animals, and the observation and treatment period following this was 12 weeks. Laquinimod was applied p.o. daily, in a dose of 25 mg/kg. CTX was applied once weekly in a dose of 25 mg/ig i.p. MTX was applied 3 times a week p.o. at 35 μg/mouse.
Also, body weight changes were recorded weekly and at the end of experiment both kidneys were preserved, one for possible conventional histology and one for immune complex detection *ICD) in glomeruli. Evaluation of ICD was performed by scoring and by image analysis.
80 animals were involved in the study.

[5] = test system: (NZBxNZW)F1 mice; assay: Confirmation of efficacy of laquinimod in the (NZBxNZW)F1 model for SLE, 13 weeks (Example 1.3); format: in vivo, mouse
Experimental: This study examined the effect of laquinimod (0.2 and 5 mg/kg) versus CTX and vehicle treated (NZBxNZZW)F1 mice. Seventy mice having spontaneous disease developed by the age of 7 months (as measured by proteinuria) were divided into 4 experimental groups (Water, CTX, Laquinimod 0.2 mg/kg, Laquinimod 5.0 mg/kg,) according to their PU scores. Water and Laquinimod were administered orally (200 μl/mouse) 5 days a week. CTX was administered intraperitonealy once weekly, (200 μl/mouse). Blood samples were collected on weeks 1, 5, and 11. Serum samples were prepared for detection of anti-dsDNA antibodies. After 13 weeks of treatment, mice were sacrificed and immune complex deposits in their kidneys were evaluated.

[6] = study period, compared to placebo
[7] = laquinimod 5 mg/kg p.o. compared to vehicle
[8] = laquinimod low dose 0.2 mg/kg orally 5 days a week

`COc1c(C)c2c(c(O)c1C/C=C(\C)CCC(=O)OCCN1CCOCC1)C(=O)OC2` [MMF, mycophenolate mofetil, reference compound] was tested, and the “lung BALT hyperplasia (histopathology)” value ([1]; MMF 100 mg/kg p.o. vs vehicle) was “significant difference”, the “kidney glomerulonephritis (histopathology)” value [1] was “significant reductions” and the “salivary gland inflammation (histopathological scoring)” value [1] was “significant reduction”.

`CCN(C(=O)c1c(O)c2c(Cl)cccc2n(C)c1=O)c1ccccc1` [laquinimod] was tested, and the tolerability ([2]; compared to placebo) was “well tolerated”, the toxicity ([2]; compared to placebo) was “no toxicity” and the “66 swollen/68 tender joint count (JC66/68)” value ([2]; study period) was “reduces”. The “C-Reactive Protein level” value ([2]; study period) was “lowers”, the “Disease Activity Score using 28 joint counts (DAS28)” value ([2]; study period) was “reduces” and the anti-dsDNA level ([2]; study period) was “lowers”. The “physician global assessment (PGA) score” value ([2]; study period) was “reduces”, the serum chemokine level ([2]; study period) was “lowers” and the serum cytokine level ([2]; study period) was “lowers”. For the same molecule, the “BILAG MSK response” value [2, 6] was “improves”, the BILAG score [2, 6] was “improves” and the swollen joint count [2, 6] was “reduces”. For the same molecule, the tender joint count [2, 6] was “reduces”, the progression of proteinuria ([3]; all doses of laquinimod (0.2, 1.0, 5.0, 25.0 mg/kg) orally 5 days a week, in comparison to vehicle) was “abrogated the progression of proteinuria” and the survival ([3]; all doses of laquinimod (0.2-25 mg/kg), 37 weeks of treatment) was “significant prolongation of survival”. The proteinuria ([3]; laquinimod dose of 0.2 mg/kg orally 5 days a week) was “abrogated proteinuria but not to the same extent as compared to the higher doses”, the “proteinuria, compared with positive control CTX” value ([3]; laquinimod doses of 1, 5 and 25 mg/kg orally 5 days a week) was “as effective as the positive control cyclophosphamide (CTX)” and the anti-dsDNA levels ([3]; serum, weeks 1, 5, 15 and 37, laquinimod 0.2-25 mg/kg) was “dose dependent reduction in antibody levels over time”. For the same molecule, the “immune complex deposition (ICD) in kidney glomeruli” value (from here on “immune complex deposition (ICD)”) [4] was “significantly inhibited”, the “proteinuria (PU)” value [4] was “significantly diminished the proteinuria” and the “bone resorption (joint histopathology)” value ([1]; both doses of laquinimod (1 and 5 mg/kg p.o.) compared to vehicle) was “Significant reductions”. The “salivary gland inflammation score, higher dose vs lower dose” value ([1]; laquinimod 5 mg/kg compared with 1 mg/kg) was “significantly lower score”, the “cartilage damage (joint histopathology)” value [1, 7] was “significant reduction” and the “joint inflammation (histopathology)” value [1, 7] was “significantly reduced”. For the same molecule, the “splenocytes as percent of total spleen cells” value [1, 7] was “significant reduction”, the “kidney glomerulonephritis (histopathology)” value [1] was “significant reductions” and the “salivary gland inflammation (histopathological scoring)” value [1] was “significant reduction”. For the same molecule, the “measures during the in life phase (proteinuria, ankle and paw diameters, dsDNA autoantibody levels, survival)” value ([1]; laquinimod 1 or 5 mg/kg p.o., trends not significant except for some sporadic time points) was “trend toward dose dependent efficacy”, the anti-dsDNA levels ([5]; laquinimod 5 mg/kg orally 5 days a week) was “behaved similarly to the positive control CTX” and the “immune complex deposits in kidneys” value ([5]; laquinimod 5 mg/kg orally 5 days a week, after 13 weeks) was “behaved similarly to the positive control CTX”. For the same molecule, the “disease progression as measured by proteinuria” value ([5]; laquinimod 0.2 and 5 mg/kg orally 5 days a week, 13 weeks) was “abrogated disease progression”, the “anti-dsDNA Ab titers” value [5, 8] was “did not inhibit” and the proteinuria [5, 8] was “prevented increased proteinuria”. The “ICD (immune complex deposits)” value ([5]; laquinimod low dose 0.2 mg/kg orally 5 days a week, after 13 weeks) was “did not inhibit”.

For `O=P1(N(CCCl)CCCl)NCCCO1` (stereo not drawn) [CTX, cyclophosphamide], the “immune complex deposition (ICD)” value [4] was “significantly inhibited” and the “proteinuria (PU)” value [4] was “significantly diminished the proteinuria”.

With `CN(Cc1cnc2nc(N)nc(N)c2n1)c1ccc(C(=O)N[C@@H](CCC(=O)O)C(=O)O)cc1` [MTX, methotrexate] the “animals died during the treatment period” value ([4]; 12 week treatment period, 80 animals in study) was 2, the “immune complex deposition (ICD)” value [4] was “failed to inhibit the symptoms” and the “proteinuria (PU)” value [4] was “failed to inhibit the symptoms”.

— patent US20130184310A1, “TREATMENT OF LUPUS ARTHRITIS USING LAQUINIMOD” (Teva Pharmaceutical Industries, Ltd., priority 2010, published 2013)
